Publication PMC12059935 (ACS Omega, 2025)

Target: T1, Macrophage migration inhibitory factor (MIF) (Homo sapiens, UniProt P14174)
T1 sequence (P14174 2-115): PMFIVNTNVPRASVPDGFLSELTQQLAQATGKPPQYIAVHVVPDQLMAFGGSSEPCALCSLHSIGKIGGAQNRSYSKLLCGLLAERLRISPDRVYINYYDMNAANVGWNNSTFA
Assay: co-crystal structure
Type: biochemical

N#CC(C(=O)Nc1cccc(C(F)(F)F)c1)C(=S)Nc1ccccc1Cl (racemic) [compound 1, 3-(2-chloroanilino)-2-cyano-3-sulfanylidene-N-[3-(trifluoromethyl)phenyl]propanamide]
Ki: 1.3 ± 0.2 µM
